Experimental data published in patent publication US20210100242A1, “FORMULATIONS FOR CONTROL AND REPELLENCY OF BITING ARTHROPODS” (BEDOUKIAN RESEARCH, INC., priority 2019, published 2021).

Tested on: Adult female Aedes aegypti
Experiment: Membrane feeder repellency test: mosquitoes probing treated collagen membranes over blood-filled wells
Format: in vivo
Settings: Total repellent 0.30%
Description: Adult female Aedes aegypti were obtained from the i2LResearch USA, Inc. colony. Two hundred fifty (250) mosquitoes were used per replicate (seven replicates). Mosquitoes were at least 6 days old and had been deprived of sucrose solution for at least 18 hours prior to testing.
An exposure container was used to present the mosquitoes with a choice of blood-filled wells that were covered with collagen membranes (3 cm in diameter). The collagen membranes were treated by pipetting 6.25 μl of the test treatment onto the appropriate membrane and spreading it evenly with the tip of the pipette.
Exposure container. A 30.5 cm×30.5 cm×30.5 cm container (rigid plastic frame and a sleeved entry on one side and a sliding trap door on the bottom). The container was supported by four (4 cm high) legs.
Membrane feeder. Five wells (3 cm in diameter x 8 mm in depth) in line on a hollow plastic block (6 cm wide x 22 cm long x 3 cm deep). The plastic block fit into the bottom of the exposure container. Hoses mounted on either end of the membrane feeder carried warm water that was pumped from a water bath. The sliding plastic trap door in the bottom of the exposure container covered and uncovered the wells in the membrane feeder, allowing mosquitoes to access the blood-filled wells that were covered with treated collagen membranes.
Study set-up. The membrane feeder was connected to a heated water bath, and warm water passed through the feeder via a circulating pump so that the wells were warmed to 96-100° F. Seventy-two (72) mg of ATP (disodium salt) were added to 26 ml of bovine blood. Sodium citrate was also added to the blood during collection to prevent clotting. The blood was poured into the wells until it completely filled each well (meniscus slightly above the level of the well).
Circular pieces (3 cm in diameter) of collagen membrane were placed over each of the wells. […]
Treatment and exposure to mosquitoes. […] The number of mosquitoes probing the membrane covering each well was recorded every two minutes for twenty minutes. […]

SMILES | Test result, percentage relative to 0.3 wt % DEET in the same test [%]
CCN(CC)C(=O)c1cccc(C)c1 [DEET, N,N-diethyl-m-toluamide, reference compound] | 100.0
CC1CCC(C(C)(C)O)C(O)C1 (stereo not drawn) [PMD, para-menthane-3,8-diol, reference compound] | 84.6
CCNC(=O)C1CC(C)CCC1C(C)C (stereo not drawn) [WS3, N-ethyl-p-menthane-3-carboxamide] | 130.0
